# Results published in patent publication US20260091123A1, “COMBINATION OF ANTI-B7-H3 ANTIBODY-DRUG CONJUGATE AND ATR INHIBITOR OR ATM INHIBITOR” (DAIICHI SANKYO COMPANY, LIMITED, priority 2023, published 2026).
# Key:
# [1] = system: human prostate carcinoma epithelial cell line, 22Rv1; experiment: In vivo antitumor activity, combination with ATM inhibitor, 22Rv1 xenograft (Test Example 5); parameters: species or system mice; settings: day 29
# Experimental: All animal experiments were performed in accordance with the in-house guidelines of the Institutional Animal Care and Use Committee of Daiichi Sankyo Co., Ltd. The human prostate carcinoma epithelial cell line, 22Rv1 was purchased from American Type Culture Collection (ATCC) and cultured in RPMI 1640 Medium (ATCC modification) (Thermo Fisher Scientific) supplemented with 10% heat-inactivated fetal bovine serum (FBS, cytiva) at 37° C. in a humidified 5% CO2 atmosphere. On the day of cancer cell inoculation, 22Rv1 cells were trypsinized, washed with D-PBS, and then resuspended in D-PBS at a concentration of 5×10^7 cells/mL. Castrated male NSG mice (NOD.Cg-Prkdc^scid Il2rg^tm1Wj1/SzJ, 6 weeks of age, The Jackson Laboratory Japan, Inc.) were subcutaneously inoculated with 22Rv1 cells (5×10^6 cells/mouse) into the right flank. […] Vehicle control • Group 2: AZD1390 20 mg/kg • Group 3: […] A (10 mmol/L histidine buffer [pH5.9] containing 9% sucrose and 0.02% polysorbate 20) to prepare a 0.3 mg/mL dosing solution. To prepare a 2.0 mg/mL dosing solution, AZD1390 was dissolved in Soln. […] The volume of each dosing solution to be administered was calculated from the individual body weight measured on the day of dosing. […] Tumor length and tumor width were measured with a digital caliper. Tumor volume and tumor growth inhibition (TGI) were calculated by the following formulas: […] […]
# [2] = system: human prostate carcinoma epithelial cell line, 22Rv1; experiment: In vivo antitumor activity, combination with ATR inhibitor, 22Rv1 xenograft (Test Example 4); parameters: species or system mice; settings: day 24
# Experimental: All animal experiments were performed in accordance with the in-house guidelines of the Institutional Animal Care and Use Committee of Daiichi Sankyo Co., Ltd. […] Vehicle control • Group 2: AZD6738 25 mg/kg • Group 3: […] A (10 mmol/L histidine buffer [pH5.9] containing 9% sucrose and 0.02% polysorbate 20) to prepare a 0.3 mg/mL dosing solution. […] Then, propylene glycol (40% [v/v] of total volume of the dosing solution) was added to the solution. After mixing with a magnetic stirrer well, water for injection (50% [v/v] of total volume of the dosing solution) was added to the solution, and then the solution was further mixed well with a magnetic stirrer. The volume of each dosing solution to be administered was calculated based on the individual body weight measured on the day of dosing. Soln. […] Soln. […] Tumor length and tumor width were measured with a digital caliper. Tumor volume and tumor growth inhibition (TGI) were calculated by the following formulas: […] Dunnett's test was used to compare tumor volumes in monotherapy groups with those in the vehicle control and to compare tumor volumes in monotherapy groups with those in the combination group. […] The following calculation of TGI and statistical analyses were performed using data except for the excluded mouse in Group 4.
SMILES,"tumor growth inhibition (TGI) ([1]; 22Rv1 in castrated male NSG mice, AZD1390 20 mg/kg orally, conjugate (1) 3 mg/kg iv days 0 and 14) [%]","tumor growth / antitumor activity compared with the vehicle control ([1]; monotherapies, Dunnett's test)","tumor growth inhibition (TGI) ([2]; 22Rv1 in castrated male NSG mice, AZD6738 25 mg/kg orally twice a day, conjugate (1) 3 mg/kg iv days 0 and 15) [%]","tumor growth compared with the vehicle control ([2]; monotherapies, Dunnett's test)"
CC(C)n1c(=O)n(C)c2cnc3cc(F)c(-c4ccc(OCCCN5CCCCC5)nc4)cc3c21 [AZD1390],14,no statistically significant difference in antitumor activity,–,–
C[C@@H]1COCCN1c1cc(C2([S@](C)(=N)=O)CC2)nc(-c2cc[nH]c3nccc2-3)n1 [AZD6738],–,–,29,significantly inhibited tumor growth
